Data published in patent US20240115527A1, “CXCR1/CXCR2 INHIBITORS FOR USE IN TREATING MYELOFIBROSIS” (Icahn School of Medicine at Mount Sinai, priority 2020, published 2024).

Assays:
Type in all cases: cell-based, human
[1] = test system: MF CD34+, CD41+ and CD33+ cells; experiment: Proliferation and lineage differentiation of MF mononuclear cells cultured with IL-8, flow cytometry; settings: ladarixin added to IL-8 culture, FIG. 4A
Description: To evaluate the effects of IL-8 on MF CD34^+ cells proliferation and lineage differentiation, MF mononuclear cells (MNC cells) were cultured with StemSpan™ Serum-Free Expansion Medium (SFEM) containing 20 ng/ml of stem cell factor (SCF), thrombopoietin (TPO), FL-3L and IL-3 with or without 50 ng/ml of IL-8. The cells were harvested after 3 days of incubation. The proportion of hematopoietic cells belonging to specific lineages were determined using flow cytometry.

[2] = test system: normal donor CD34+ cells; experiment: Proliferation and lineage differentiation of normal donor cells cultured with IL-8, flow cytometry; settings: ladarixin added to IL-8 culture, FIG. 4A
[3] = test system: MF CD34+ cells; experiment: Clonal assays of MF CD34+ cells; JAK2V617F allele status of picked hematopoietic colonies
Description: Individual hematopoietic colonies were randomly picked from clonal assays of CD34^+ cells from 6 MF cases and the JAK2V617F allele status was determined.
IL-8 alone increased the absolute numbers of JAK2V617F+ colonies, and the addition of Ladarixin reduced the numbers of JAK2V617F positive colonies stimulated by IL-8 (Tables 1-3).

[4] = MF1 CD34+ cells, ladarixin 10 μM + IL-8 10 ng
[5] = MF1 CD34+ cells, ladarixin 10 μM + IL-8 20 ng
[6] = MF1 CD34+ cells, ladarixin 10 μM + IL-8 50 ng
[7] = MF1 CD34+ cells, ladarixin 10 μM + IL-8 100 ng
[8] = MF1 CD34+ cells, ladarixin 10 μM, no IL-8
[9] = MF1 CD34+ cells, ladarixin 20 μM + IL-8 20 ng
[10] = MF1 CD34+ cells, ladarixin 20 μM, no IL-8
[11] = MF2 CD34+ cells, ladarixin 10 μM + IL-8 10 ng
[12] = MF2 CD34+ cells, ladarixin 10 μM + IL-8 20 ng
[13] = MF2 CD34+ cells, ladarixin 10 μM + IL-8 50 ng
[14] = MF2 CD34+ cells, ladarixin 10 μM + IL-8 100 ng
[15] = MF2 CD34+ cells, ladarixin 10 μM, no IL-8
[16] = MF2 CD34+ cells, ladarixin 20 μM + IL-8 20 ng
[17] = MF2 CD34+ cells, ladarixin 20 μM, no IL-8
[18] = MF3 CD34+ cells, ladarixin 10 μM + IL-8 10 ng
[19] = MF3 CD34+ cells, ladarixin 10 μM + IL-8 20 ng
[20] = MF3 CD34+ cells, ladarixin 10 μM + IL-8 50 ng
[21] = MF3 CD34+ cells, ladarixin 10 μM + IL-8 100 ng
[22] = MF3 CD34+ cells, ladarixin 10 μM, no IL-8
[23] = MF3 CD34+ cells, ladarixin 20 μM + IL-8 20 ng
[24] = MF3 CD34+ cells, ladarixin 20 μM, no IL-8

## C[C@@H](C(=O)NS(C)(=O)=O)c1ccc(OS(=O)(=O)C(F)(F)F)cc1 [Ladarixin, R(-)-2-[(4′-trifluoromethanesulfonyloxy)phenyl]-N-methanesulfonyl propionamide]
[1]
  effect on IL-8 induced change of percentage of MF CD34+, CD41+ and CD33+ cells: reversed the effects of IL-8
[2]
  effect on IL-8 induced change of normal CD34+, CD41+ and CD33+ cell populations: reversed the effects of IL-8
[3]; [4]
  number of colonies, Heter (JAK2V617F heterozygous): 54
  number of colonies, Homo (JAK2V617F homozygous): 8
  number of colonies, WT (JAK2 wild type): 0
[3]; [5]
  number of colonies, Heter (JAK2V617F heterozygous): 56
  number of colonies, Homo (JAK2V617F homozygous): 4
  number of colonies, WT (JAK2 wild type): 4
[3]; [6]
  number of colonies, Heter (JAK2V617F heterozygous): 62
  number of colonies, Homo (JAK2V617F homozygous): 5
  number of colonies, WT (JAK2 wild type): 0
[3]; [7]
  number of colonies, Heter (JAK2V617F heterozygous): 58
  number of colonies, Homo (JAK2V617F homozygous): 8
  number of colonies, WT (JAK2 wild type): 0
[3]; [8]
  number of colonies, Heter (JAK2V617F heterozygous): 49
  number of colonies, Homo (JAK2V617F homozygous): 4
  number of colonies, WT (JAK2 wild type): 0
[3]; [9]
  number of colonies, Heter (JAK2V617F heterozygous): 49
  number of colonies, Homo (JAK2V617F homozygous): 4
  number of colonies, WT (JAK2 wild type): 9
[3]; [10]
  number of colonies, Heter (JAK2V617F heterozygous): 43
  number of colonies, Homo (JAK2V617F homozygous): 0
  number of colonies, WT (JAK2 wild type): 16
[3]; [11]
  number of colonies, Heter (JAK2V617F heterozygous): 0
  number of colonies, Homo (JAK2V617F homozygous): 0
  number of colonies, WT (JAK2 wild type): 49
[3]; [12]
  number of colonies, Heter (JAK2V617F heterozygous): 3
  number of colonies, Homo (JAK2V617F homozygous): 0
  number of colonies, WT (JAK2 wild type): 35
[3]; [13]
  number of colonies, Heter (JAK2V617F heterozygous): 0
  number of colonies, Homo (JAK2V617F homozygous): 0
  number of colonies, WT (JAK2 wild type): 44
[3]; [14]
  number of colonies, Heter (JAK2V617F heterozygous): 0
  number of colonies, Homo (JAK2V617F homozygous): 0
  number of colonies, WT (JAK2 wild type): 46
[3]; [15]
  number of colonies, Heter (JAK2V617F heterozygous): 0
  number of colonies, Homo (JAK2V617F homozygous): 0
  number of colonies, WT (JAK2 wild type): 36
[3]; [16]
  number of colonies, Heter (JAK2V617F heterozygous): 0
  number of colonies, Homo (JAK2V617F homozygous): 0
  number of colonies, WT (JAK2 wild type): 47
[3]; [17]
  number of colonies, Heter (JAK2V617F heterozygous): 0
  number of colonies, Homo (JAK2V617F homozygous): 0
  number of colonies, WT (JAK2 wild type): 44
[3]; [18]
  number of colonies, Heter (JAK2V617F heterozygous): 110
  number of colonies, Homo (JAK2V617F homozygous): 17
  number of colonies, WT (JAK2 wild type): 8
[3]; [19]
  number of colonies, Heter (JAK2V617F heterozygous): 17
  number of colonies, Homo (JAK2V617F homozygous): 69
  number of colonies, WT (JAK2 wild type): 51
[3]; [20]
  number of colonies, Heter (JAK2V617F heterozygous): 50
  number of colonies, Homo (JAK2V617F homozygous): 67
  number of colonies, WT (JAK2 wild type): 34
[3]; [21]
  number of colonies, Heter (JAK2V617F heterozygous): 0
  number of colonies, Homo (JAK2V617F homozygous): 109
  number of colonies, WT (JAK2 wild type): 49
[3]; [22]
  number of colonies, Heter (JAK2V617F heterozygous): 13
  number of colonies, Homo (JAK2V617F homozygous): 73
  number of colonies, WT (JAK2 wild type): 13
[3]; [23]
  number of colonies, Heter (JAK2V617F heterozygous): 0
  number of colonies, Homo (JAK2V617F homozygous): 70
  number of colonies, WT (JAK2 wild type): 53
[3]; [24]
  number of colonies, Heter (JAK2V617F heterozygous): 28
  number of colonies, Homo (JAK2V617F homozygous): 49
